These results are taken from US5389644A, “1,4-dihydropyridine compounds” (priority 1992, dated 1995).

Assay [1] has as its system KB-A1. The assay is described as follows: Cytotoxicity: reversal of resistance to adriamycin (reversion factor), line KB-A1. In kind it is cell-based, Human. How it is done:
The parameter measured is the cytotoxicity of the antitumour drug, quantified in the absence and in the presence of the reversing compound. […] The compounds tested for their capacity to reverse the resistance are added at the same time as the cytotoxic agent. The cells are then incubated for 4 days.

Assay [2] deals with Plasmodium falciparum. The following applies: literature (Krogstad; Martin; Deloron); cited from earlier work.
Assay [3] relates to DC-3F/AD. The assay is described as follows: Cytotoxicity: reversal of resistance to actinomycin D (reversion factor), line DC-3F/AD. In kind it is cell-based, Chinese hamster. The protocol:
The parameter measured is the cytotoxicity of the antitumour drug, quantified in the absence and in the presence of the reversing compound. Two resistant cell lines were used: 1 Chinese hamster lung line, DC-3F/AD, the resistance of which was induced by actinomycin D. […] The compounds tested for their capacity to reverse the resistance are added at the same time as the cytotoxic agent. The cells are then incubated for 4 days.

Assay [4] deals with KB-A1. The assay is described as follows: Flow cytometry: intracellular accumulation of ADR, line KB-A1. The assay is classed as cell-based, Human. The following applies: ADR 50 μM, 5 hours. How it is done: Also measured was the effect of the compounds on the intracellular concentration of adriamycin. […] By measuring that fluorescence, it is thus possible to obtain a relative measurement of the intracellular concentration of ADR. […] The cells (5×10^5 per ml) were exposed simultaneously to ADR at a fixed concentration (50 μM) and to the tested compounds at various concentrations. After 5 hours' incubation, the intracellular accumulation of ADR was evaluated by FCM. […] The results were presented in the form of linear histograms of the intracellular ADR fluorescence. Expression of the results: for each of the histograms the mean fluorescence per channel (MEAN) was determined by the computer of the apparatus. For all experiments: a negative control (cells without ADR) fixed the autofluorescence threshold. a positive control (cells with ADR) determined the MEAN value=MN1. the "test" tubes (cells with ADR and with compound) were used to determine, for each of the compounds and at each of the concentrations, the MEAN values=MN2. The results are expressed in the form of variations from the mean fluorescence obtained for each of the "test" tubes (MN2) in relation to the mean fluorescence obtained with the positive control (MN1): VAR-MEAN=MN2-MN1. The measured parameter is thus the increase in ADR fluorescence in the presence of the tested compounds.
For orientation: A flow cytometer gives signals particle by particle.

As to `COc1ccc(CCN(C)CCCC(C#N)(c2ccc(OC)c(OC)c2)C(C)C)cc1OC` (centres unmarked) [verapamil, reference compound], the “reversion factor (RF)” value in assay [1] (compound 1 μM) is given as 4.6; in assay [1] (compound 5 μM), 26.0; in assay [3] (compound 1 μM), 1.0; in assay [3] (compound 5 μM), 3.1. Moreover, in assay [2], the “sensitivity of a chloroquine-resistant line to chloroquine” value is given as “restores the sensitivity of a line resistant to chloroquine”. Besides, the “increase in the ADR fluorescence (VAR-MEAN)” value in assay [4] (compound 1 μM) is recorded as 3.7; in assay [4] (compound 5 μM) it was 12.2; in assay [4] (compound […]), 8.6.
